{"source": "patent US7317028B2", "about": "“Cell differentiation inducer” (Schering Aktiengesellschaft, priority 1996, dated 2008)", "note": "Counter-ions that a name gives are not always drawn.", "data": [{"test_system": "A2780 cells", "test": "Test for induction of differentiation in A2780 cells (ALP activity, ALPmin)", "assay_type": "cell-based, human", "conditions": "A2780 cells, 3 days incubation; minimum concentration of the drug inducing increase of ALP activity", "experimental": "(§1) Increase of alkaline phosphatase (ALP) activity is known as an indicator for differentiation of human colon cancer cells. […] Thus, differentiation inducing action was evaluated using ALP activity as an indicator.\n(§2) To each well of a 96-well plate was placed 0.1 mL of A2780 cells (15,000 cells/well) and the next day was added 0.1 mL of a sequential dilute of test solution with the medium. […] The reaction was quenched with 0.05 mL/well of 3N sodium hydroxide aq. For each well, an absorbance at 405 nm was measured to determine the minimum concentration of the drug inducing increase of ALP activity (ALPmin).", "units": {"minimal effective concentration": "µM"}, "values": [{"compound": "Nc1cccc(NC(=O)NCc2ccc(C(=O)Nc3ccccc3N)cc2)c1", "note": "[Example 90, N-(2-aminophenyl)-4-[N′-(3-aminophenyl)ureidomethyl]benzamide]", "minimal effective concentration": 3}, {"compound": "COC(=O)c1ccc(C(=O)NCc2ccc(C(=O)Nc3ccccc3N)cc2)cc1", "note": "[Example 11, N-(2-aminophenyl)-4-[N-(4-methoxycarboxybenzoyl)aminomethyl]benzamide]", "minimal effective concentration": 1}, {"compound": "Nc1ccccc1NC(=O)c1ccc(CNC(=S)Nc2cccc([N+](=O)[O-])c2)cc1", "note": "[Example 93, N-(2-aminophenyl)-4-[N′-(3-nitrophenyl)thioureidomethyl]benzamide]", "minimal effective concentration": 3}, {"compound": "Cn1cccc1C(=O)NCc1ccc(C(=O)Nc2ccccc2N)cc1", "note": "[Example 24, N-(2-aminophenyl)-4-[N-(N′-methyl-1H-pyrrol-2-yl)carbonylaminomethyl]benzamide]", "minimal effective concentration": 1}]}, {"test_system": "A2780 cells", "test": "Test for induction of differentiation in A2780 cells (ALP activity, ALPmin)", "assay_type": "cell-based, human", "conditions": "Homo sapiens, 72 h; A2780 cells, 3 days incubation; minimum concentration of the drug inducing increase of ALP activity", "experimental": "as §1, §2", "units": {"minimal effective concentration": "µM"}, "values": [{"compound": "Nc1ccccc1NC(=O)c1ccc(NC(=O)Cc2ccccc2[N+](=O)[O-])cc1", "note": "[Example 103, N-(2-aminophenyl)-4-[(2-nitrophenylacetyl)amino]benzamide hydrochloride]", "minimal effective concentration": 1}, {"compound": "Nc1ccccc1NC(=O)c1ccc(NC(=O)CCCc2ccccc2)cc1", "note": "[Example 101, N-(2-aminophenyl)-4-[(4-phenylbutanoyl)amino]benzamide]", "minimal effective concentration": 3}, {"compound": "O=C(CCc1cccnc1)NCc1ccc(C(=O)Nc2ccccc2O)cc1", "note": "[Example 40, N-(2-hydroxyphenyl)-4-[N-[3-(pyridin-3-yl)propionyl]aminomethyl]benzamide]", "minimal effective concentration": 10}, {"compound": "Cc1ccc(C(=O)NCc2ccc(C(=O)Nc3ccccc3N)cc2)cc1", "note": "[Example 4, N-(2-aminophenyl)-4-[N-(4-methylbenzoyl)aminomethyl]benzamide hydrochloride]", "minimal effective concentration": 1}, {"compound": "Nc1ccccc1NC(=O)c1ccc(NC(=O)Cc2ccc(C(F)(F)F)cc2)cc1", "note": "[Example 109, N-(2-aminophenyl)-4-[(4-trifluoromethylphenylacetyl)amino]benzamide]", "minimal effective concentration": 1}, {"compound": "Nc1ccccc1NC(=O)c1ccc(CNC(=O)OCc2ccccc2)cc1", "note": "[Example 49, N-(2-aminophenyl)-4-[N-(benzyloxycarbonyl)aminomethyl]benzamide]", "minimal effective concentration": 1}, {"compound": "Nc1ccc(OCC(=O)Nc2ccc(C(=O)Nc3ccccc3N)cc2)cc1", "note": "[Example 135, N-(2-aminophenyl)-4-[(4-aminophenoxyacetyl)amino]benzamide]", "minimal effective concentration": 3}, {"compound": "Nc1ccc(NC(=O)c2ccc(CNC(=O)OCc3cccnc3)cc2)cc1", "note": "[Comp. Ex. 2, N-(4-aminophenyl)-4-[N-(pyridin-3-yl)methoxycarbonylaminomethyl]benzamide, reference compound]", "minimal effective concentration": "> 100"}, {"compound": "Nc1nc(CC(=O)NCc2ccc(C(=O)Nc3ccccc3N)cc2)cs1", "note": "[Example 36, N-(2-aminophenyl)-4-[N-(2-aminothiazol-4-yl)acetylaminomethyl]benzamide]", "minimal effective concentration": 10}, {"compound": "Nc1ccccc1NC(=O)c1ccc(NC(=O)OCCc2cccnc2)cc1", "note": "[Example 86, N-(2-aminophenyl)-4-[N-[2-(pyridin-3-yl)ethoxycarbonyl]amino]benzamide]", "minimal effective concentration": 0.3}, {"compound": "Nc1ccccc1NC(=O)c1ccc(CN(CCCc2cccnc2)C(=O)COc2cccnc2)cc1", "note": "[Example 43, N-(2-aminophenyl)-4-[N-(pyridin-3-yl)oxyacetyl-N-[3-(pyridin-3-yl)propyl]aminomethyl]benzamide]", "minimal effective concentration": 3}, {"compound": "Nc1ccccc1NC(=O)c1ccc(CNC(=O)OCc2cccnc2Cl)cc1", "note": "[Example 58, N-(2-aminophenyl)-4-[N-(2-chloropyridin-3-yl)methoxycarbonylaminomethyl]benzamide]", "minimal effective concentration": 3}, {"compound": "Nc1ccccc1NC(=O)c1ccc(CNC(=O)c2ccc(C(=O)O)cc2)cc1", "note": "[Example 10, N-(2-aminophenyl)-4-[N-(4-carboxybenzoyl)aminomethyl]benzamide hydrochloride]", "minimal effective concentration": 3}]}]}
